What was measured:
[1] = system: abnormal behavior and fatality due to ferrous chloride; test: In vivo antioxidative activity: ferrous chloride administration into spinal subarachnoid cavity of mice; parameters: species or system Slc:ICR male mice; details: score after 60 minutes; for In vivo antioxidation action 50% inhibitory concentration (ID50), Intraperitoneal administration: intraperitoneal administration 30 minutes before ferrous chloride into spinal canal; for In vivo antioxidation action 50% inhibitory concentration (ID50), Oral administration: oral administration 30 minutes before ferrous chloride into spinal canal
Procedure: An in vivo antioxidative activity of the compounds of the present invention was evaluated from an abnormal behavior due to administration of ferrous chloride into spinal subarachnoid cavity of mice as well as an inhibitory effect of a fatality rate according to the process described in J. Med. Chem., 1997, Vol. 40, p. 559-573. Using Slc:ICR male mice (one group: 3 to 7 mice, 5 weeks old) (available from Nippon SLC Co., Ltd.), 5 μl of a 50 mM ferrous chloride physiological saline solution was administered to the spinal canal through the space between the fifth lumbar vertebrae and the sixth lumbar vertebrae. 20 to 60 minutes after administration of ferrous chloride, symptoms were observed and a score after 60 minutes was determined from symptoms shown in Table 32. […] As is apparent from the results, the compounds of the present invention have an in vivo antioxidation action.

[2] = system: lipid peroxidation activity of each tissue homogenate (brain, heart and kidney); test: Tissue migration properties: ex vivo lipid peroxidation inhibition in brain, heart and kidney homogenates; details: SD male rats, 100 mg/kg intraperitoneally, 30 minutes after administration; for Ex vivo lipid peroxidation inhibition inhibition ratio (%) Brain: brain homogenate; for Ex vivo lipid peroxidation inhibition inhibition ratio (%) Heart: heart homogenate; for Ex vivo lipid peroxidation inhibition inhibition ratio (%) Kidney: kidney homogenate
Procedure: (§1) An in vitro lipid peroxidation inhibition of the compounds of the present invention was evaluated by measuring a lipid peroxidation activity in a rat brain homogenate according to a process of Malvy, c., et al., Biochemical and Biophysical Research Communications, 1980, Vol. 95, p. 734-737. That is, a rat brain was extracted and a 5-fold amount of an aqueous phosphoric acid buffered saline solution (pH 7.4) (hereinafter abbreviated to PBS) was added to the brain under ice cooling, followed by homogenization using a Teflon homogenizer and further centrifugation at 10,000 g for 20 minutes to prepare a brain homogenate as a supernatant. To the brain homogenate thus prepared, 500 μM cysteine, 5 μM sulfuric acid monobasic iron and 100 mM KCl were added, followed by incubation at 37° C. for 30 minutes. Malondialdehyde produced by the […] of lipid peroxidation was measured by a thiobarbituric acid process.
Tissue migration properties of the compounds of the present invention were evaluated by measuring an ex vivo lipid peroxidation inhibition. A solution or suspension prepared by dissolving or suspending each of test compounds in an aqueous physiological saline solution or a 1% poly oxy ethylene hydrogenated castor oil (NIKKOL HCO-60, manufactured by Nikko Chemicals Co., Ltd.) physiological saline solution was intraperitoneally administered to SD male rats (one group: 3 rats, 6 weeks old) (available from Nippon SLC Co., Ltd.) at a dose of 100 mg/kg. 30 Minutes after administration, rats were bled to death by cutting the carotid artery and then the brain, heart and kidney were extracted. A lipid peroxidation activity of each tissue homogenate was measured by the process described in Example 18. An inhibition ratio in each tissue of the compounds of the present invention was determined from the amount of lipid peroxidation produced of a control group (physiological saline administration group) and a test compound administration group.

[3] = system: lipid peroxidation activity in a rat brain homogenate; test: In vitro lipid peroxidation inhibition (rat brain homogenate, thiobarbituric acid process); type: biochemical; details: read-out: In vitro lipid peroxidation inhibition 50% inhibitory concentration (IC50 μM), 500 μM cysteine, 5 μM sulfuric acid monobasic iron, 100 mM KCl, 37° C. for 30 minutes
Procedure: as §1

5-lipoxygenase (5-LO) = biological target: T1, 5-lipoxygenase (5-LO) (Homo sapiens, UniProt P09917); test: 5-lipoxygenase (5-LO) inhibitory activity, leukotriene B4 production in human peripheral blood mononuclear cells; type: cell-based; details: for IC50: human peripheral blood mononuclear cells, A23187, leukotriene B4 production; for 5-LO, percentage given after >10: bracketed value beside IC50 >10 μM, not explained, presumably inhibition at 10 μM
T1 construct: human peripheral blood mononuclear cells and each of test compounds dissolved in DMSO (final concentration: 1%) were preincubated; endogenous in cells; host or cells: human peripheral blood mononuclear cells
T1 sequence (P09917 1-674): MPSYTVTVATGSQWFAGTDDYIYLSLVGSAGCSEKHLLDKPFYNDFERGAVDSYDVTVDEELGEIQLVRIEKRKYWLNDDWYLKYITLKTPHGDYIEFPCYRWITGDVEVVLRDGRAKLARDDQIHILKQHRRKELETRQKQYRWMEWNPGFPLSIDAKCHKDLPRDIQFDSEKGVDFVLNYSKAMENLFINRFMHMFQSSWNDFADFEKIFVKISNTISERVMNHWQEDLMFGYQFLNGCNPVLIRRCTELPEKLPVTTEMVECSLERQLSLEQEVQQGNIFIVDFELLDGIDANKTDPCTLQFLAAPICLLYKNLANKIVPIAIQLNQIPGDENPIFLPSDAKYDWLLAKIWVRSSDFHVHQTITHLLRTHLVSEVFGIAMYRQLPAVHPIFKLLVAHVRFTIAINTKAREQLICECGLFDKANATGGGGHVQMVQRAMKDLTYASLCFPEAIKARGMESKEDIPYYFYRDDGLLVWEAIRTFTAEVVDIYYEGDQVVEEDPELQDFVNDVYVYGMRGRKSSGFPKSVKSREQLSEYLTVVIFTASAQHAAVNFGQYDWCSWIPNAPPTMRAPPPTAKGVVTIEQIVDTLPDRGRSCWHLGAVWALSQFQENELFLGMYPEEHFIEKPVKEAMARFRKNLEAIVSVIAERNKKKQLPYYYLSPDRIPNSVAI
Procedure: A 5-LO inhibitory activity was measured by a partially modified process of a process of Carter et al. (Carter G. W, et al, J. Pharmacol. Exp. Ther.: 256, 929-37, 1991). That is, human peripheral blood mononuclear cells and each of test compounds dissolved in DMSO (final concentration: 1%) were preincubated (37° C., 15 minutes) in a Hanks' balanced salt solution and 30 μM A23187 was further added, followed by incubation (37° C., 30 minutes). The amount of leukotriene B4 produced as a result of incubation was determined by enzyme immunoassay and a 50% production inhibitory concentration (μM) against 5-LO of each test compound was calculated.

[4] = biological target: T2, 15-LO obtained from reticulocyte of rabbit (Oryctolagus cuniculus, UniProt P12530); test: 15-lipoxygenase (15-LO) inhibitory activity, 15-HETE production; type: biochemical; details: 15-LO from reticulocyte of rabbit, linoleic acid
T2 construct: 15-LO obtained from reticulocyte of rabbit; from tissue; host or cells: rabbit reticulocytes
T2 sequence (P12530 1-663): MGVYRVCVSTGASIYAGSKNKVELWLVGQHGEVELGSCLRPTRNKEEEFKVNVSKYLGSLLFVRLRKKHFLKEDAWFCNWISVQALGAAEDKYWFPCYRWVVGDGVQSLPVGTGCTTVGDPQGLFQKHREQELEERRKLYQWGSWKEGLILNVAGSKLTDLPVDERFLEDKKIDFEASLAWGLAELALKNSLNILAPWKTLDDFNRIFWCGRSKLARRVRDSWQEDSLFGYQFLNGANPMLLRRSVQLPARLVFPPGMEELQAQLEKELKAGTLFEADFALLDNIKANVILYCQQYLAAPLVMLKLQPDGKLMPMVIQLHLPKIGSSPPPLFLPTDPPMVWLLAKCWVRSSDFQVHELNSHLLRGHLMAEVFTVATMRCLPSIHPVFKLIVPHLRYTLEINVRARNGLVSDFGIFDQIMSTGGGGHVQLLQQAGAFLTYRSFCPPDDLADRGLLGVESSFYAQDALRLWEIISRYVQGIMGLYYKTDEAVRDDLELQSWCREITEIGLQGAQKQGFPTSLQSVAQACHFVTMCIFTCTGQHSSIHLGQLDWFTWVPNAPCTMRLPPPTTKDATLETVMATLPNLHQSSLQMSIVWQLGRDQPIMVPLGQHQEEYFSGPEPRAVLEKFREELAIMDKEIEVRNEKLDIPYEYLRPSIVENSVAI
Procedure: A 15-LO inhibitory activity was measured by a partially modified process of a process of Auerbach et al. (Auerbach B. J, et al., Anal. Biochem.: 201, 375-80, 1992). That is, 15-LO obtained from reticulocyte of rabbit and each of test compounds dissolved in DMSO (final concentration: 1%) were preincubated (4° C., 15 minutes) in phosphoric acid buffer (pH 7.4) and 256 μM linoleic acid was further added, followed by incubation (4° C., 10 minutes). The amount of 15-HETE produced as a result of incubation was determined by spectrophotometry (OD660nm) and 50% production inhibitory concentration (μM) against 15-LO of each test compound was calculated. Compounds (R-3) and (R-4) (edaravone) of the following formulas were used as a control drug.

[5] = Acute oral toxicity, single oral dose, mortality rate after 7 days; details: mouse, in vivo, male mice, observed for 7 days
Procedure: A single dose of each of the compounds of the present invention was orally administered to male mice. After observing for 7 days, a mortality rate was determined.

Row | Compound | In vivo antioxidation action 50% inhibitory concentration (ID50), Intraperitoneal administration [1] [mg/kg] | In vivo antioxidation action 50% inhibitory concentration (ID50), Oral administration [1] [mg/kg] | Ex vivo lipid peroxidation inhibition inhibition ratio (%) Brain [2] [%] | Ex vivo lipid peroxidation inhibition inhibition ratio (%) Heart [2] [%] | Ex vivo lipid peroxidation inhibition inhibition ratio (%) Kidney [2] [%] | IC50 [3] [µM] | IC50 (5-lipoxygenase (5-LO)) [nM] | IC50 [4] [nM] | LD50 at 7 days [5] [mg/kg] | 5-LO, percentage given after >10 (5-lipoxygenase (5-LO)) [%]
1 | Cc1c(C)c2c(c(C)c1N)CC(C)(C(=O)N1CCN(c3ccc(-n4ccnc4)cc3)CC1)O2 (racemic) [Compound B-1-1, (±)-(5-amino-2,4,6,7-tetramethyldihydrobenzofuran-2-yl)-[4-(4-imidazol-1-ylphenyl)-piperazin-1-yl]carboxamide] | 4.4 | 19 | 96 | 88 | 95 | – | – | – | – | –
2 | Cc1c(C)c2c(c(C)c1N)CC(C)(CNc1ccc(-c3ccn[nH]3)cc1)O2 (racemic) [Compound B-2-5-1, 4-(±)-(5-amino-2,4,6,7-tetramethyldihydrobenzofuran-2-ylmethylamino)-phenyl-5-1H-pyrazole] | 16 | 17 | 96 | 88 | 88 | 0.42 | 160 | 1400 | > 2000 | –
3 | Cc1c(C)c2c(c(C)c1O)CC(C)(C(=O)Nc1ccc(-n3ccnc3)cc1)O2 (stereo not drawn) [Compound R-1, reference compound] | >30 | >30 | 68 | 59 | 75 | 0.23 | – | – | – | –
4 | Cc1c(C)c2c(c(C)c1O)CCC(C)(C(=O)Nc1ccc(-n3ccnc3)cc1)O2 (stereo not drawn) [Compound R-2, reference compound] | 20 | 53 | 45 | 57 | 84 | 0.23 | – | – | – | –
5 | Cc1c(C)c2c(c(C)c1N)CC(C)(CN1CCC(c3ccccc3)CC1)O2 (stereo not drawn) [Compound R-3, reference compound] | – | – | – | – | – | – | > 10000 | 3260 | < 300 | 34
6 | CC1=NN(c2ccccc2)C(=O)C1 [Compound R-4, edaravone] | – | – | – | – | – | – | > 10000 | 5570 | – | 32

Reference: patent publication US7553837B2, “Phenylazole compounds production process and antioxidants” (Nippon Soda Co., Ltd., priority 2003, dated 2009)
